Experimental data taken from ChEMBL document CHEMBL1201862, “PubChem BioAssay data set” (2004).
The source made the active and inactive calls.

Experiments:
[1] = system: Streptococcus sp. 'group A'; assay: growth inhibition of control SK(-) GAS strain, dose response, counter-screen for streptokinase expression inhibitor project, luminescence, kanamycin, BacTiterGlo, confirmation (AID 1900); assay type: functional, organism-based
[2] = target: T1, Streptokinase A (Streptococcus pyogenes serotype M1, UniProt P10520); assay: S. pyogenes streptokinase expression inhibitors, potency, dose response, plasminogen activation absorbance, OD405 (AID 1914); assay type: functional, Streptococcus pyogenes M1 GAS;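 further: secreted streptokinase activity via plasminogen activation per viability signal from cell pellet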
T1 sequence (P10520 whole entry): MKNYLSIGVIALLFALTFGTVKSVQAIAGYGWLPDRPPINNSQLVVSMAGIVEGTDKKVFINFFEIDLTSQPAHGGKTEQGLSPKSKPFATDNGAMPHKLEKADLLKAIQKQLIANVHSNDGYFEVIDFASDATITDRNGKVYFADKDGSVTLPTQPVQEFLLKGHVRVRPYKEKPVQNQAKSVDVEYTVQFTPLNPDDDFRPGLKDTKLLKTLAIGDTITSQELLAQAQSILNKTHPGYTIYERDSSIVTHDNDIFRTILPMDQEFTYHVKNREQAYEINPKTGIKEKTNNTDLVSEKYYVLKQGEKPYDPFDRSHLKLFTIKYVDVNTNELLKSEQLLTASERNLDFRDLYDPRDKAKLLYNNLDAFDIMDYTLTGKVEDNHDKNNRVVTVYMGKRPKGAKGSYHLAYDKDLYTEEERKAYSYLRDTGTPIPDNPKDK

[3] = system: Streptococcus; assay: Group A Streptococcus viability loss, dose response, counter-screen for streptokinase expression inhibitor project, luminescence, BacTiterGlo (AID 1915); assay type: functional, organism-based;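 further: potency for reduction of bacterial viability or growth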
[4] = target: T2, Exodeoxyribonuclease V (Escherichia coli (strain K12), UniProt P04993+P07648+P08394); assay: E. coli RecBCD inhibitors, dose response, counter-screen for AddAB inhibitor project, absorbance, V66 E. coli, mutant T4 phage (AID 492957); assay type: functional, cell-based, Escherichia coli str. K-12 substr. MG1655
T2 sequence (P04993 whole entry): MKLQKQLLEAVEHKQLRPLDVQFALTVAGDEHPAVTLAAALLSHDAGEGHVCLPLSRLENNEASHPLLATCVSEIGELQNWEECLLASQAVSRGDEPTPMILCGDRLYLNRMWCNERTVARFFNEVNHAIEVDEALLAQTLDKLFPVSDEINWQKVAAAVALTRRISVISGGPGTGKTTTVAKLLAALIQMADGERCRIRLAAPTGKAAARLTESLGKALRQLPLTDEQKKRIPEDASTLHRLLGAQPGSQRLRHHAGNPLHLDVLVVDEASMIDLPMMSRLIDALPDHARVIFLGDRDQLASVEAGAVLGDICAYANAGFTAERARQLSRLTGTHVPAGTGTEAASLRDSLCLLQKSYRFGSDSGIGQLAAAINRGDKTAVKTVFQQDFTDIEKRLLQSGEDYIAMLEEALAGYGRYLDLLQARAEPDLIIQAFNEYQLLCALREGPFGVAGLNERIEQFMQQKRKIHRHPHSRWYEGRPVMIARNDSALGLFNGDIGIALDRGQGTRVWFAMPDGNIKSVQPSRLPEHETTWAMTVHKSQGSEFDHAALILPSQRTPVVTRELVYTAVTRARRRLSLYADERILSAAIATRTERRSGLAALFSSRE
T2 sequence (P07648 whole entry): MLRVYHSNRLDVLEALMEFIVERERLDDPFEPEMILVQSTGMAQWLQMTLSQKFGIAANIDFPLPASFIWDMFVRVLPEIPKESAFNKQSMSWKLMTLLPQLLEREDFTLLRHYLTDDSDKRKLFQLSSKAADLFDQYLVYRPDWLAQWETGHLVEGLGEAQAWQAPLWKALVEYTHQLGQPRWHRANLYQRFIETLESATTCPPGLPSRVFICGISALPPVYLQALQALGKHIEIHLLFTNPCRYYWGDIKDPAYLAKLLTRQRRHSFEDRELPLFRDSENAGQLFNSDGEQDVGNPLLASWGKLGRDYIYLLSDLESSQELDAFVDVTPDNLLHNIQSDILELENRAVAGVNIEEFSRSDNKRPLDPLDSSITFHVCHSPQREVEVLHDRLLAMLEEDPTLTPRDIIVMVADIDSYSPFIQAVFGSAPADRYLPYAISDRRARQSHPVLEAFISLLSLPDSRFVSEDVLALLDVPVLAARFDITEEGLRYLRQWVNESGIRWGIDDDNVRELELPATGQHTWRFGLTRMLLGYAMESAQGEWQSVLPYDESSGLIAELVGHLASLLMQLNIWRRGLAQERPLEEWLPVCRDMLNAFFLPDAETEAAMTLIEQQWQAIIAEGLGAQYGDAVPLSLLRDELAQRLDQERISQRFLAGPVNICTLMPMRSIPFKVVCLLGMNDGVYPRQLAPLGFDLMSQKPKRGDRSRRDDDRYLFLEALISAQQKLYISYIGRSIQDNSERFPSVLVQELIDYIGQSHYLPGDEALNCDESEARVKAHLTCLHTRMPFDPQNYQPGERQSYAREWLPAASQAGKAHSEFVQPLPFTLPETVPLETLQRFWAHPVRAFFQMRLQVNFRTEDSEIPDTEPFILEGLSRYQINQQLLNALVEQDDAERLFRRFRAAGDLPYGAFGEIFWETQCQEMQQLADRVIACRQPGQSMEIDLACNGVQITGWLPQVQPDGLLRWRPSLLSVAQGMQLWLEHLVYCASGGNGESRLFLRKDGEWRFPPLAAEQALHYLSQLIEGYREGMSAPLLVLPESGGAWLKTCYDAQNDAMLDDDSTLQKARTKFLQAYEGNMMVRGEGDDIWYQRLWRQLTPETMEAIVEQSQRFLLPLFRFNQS
T2 sequence (P08394 whole entry): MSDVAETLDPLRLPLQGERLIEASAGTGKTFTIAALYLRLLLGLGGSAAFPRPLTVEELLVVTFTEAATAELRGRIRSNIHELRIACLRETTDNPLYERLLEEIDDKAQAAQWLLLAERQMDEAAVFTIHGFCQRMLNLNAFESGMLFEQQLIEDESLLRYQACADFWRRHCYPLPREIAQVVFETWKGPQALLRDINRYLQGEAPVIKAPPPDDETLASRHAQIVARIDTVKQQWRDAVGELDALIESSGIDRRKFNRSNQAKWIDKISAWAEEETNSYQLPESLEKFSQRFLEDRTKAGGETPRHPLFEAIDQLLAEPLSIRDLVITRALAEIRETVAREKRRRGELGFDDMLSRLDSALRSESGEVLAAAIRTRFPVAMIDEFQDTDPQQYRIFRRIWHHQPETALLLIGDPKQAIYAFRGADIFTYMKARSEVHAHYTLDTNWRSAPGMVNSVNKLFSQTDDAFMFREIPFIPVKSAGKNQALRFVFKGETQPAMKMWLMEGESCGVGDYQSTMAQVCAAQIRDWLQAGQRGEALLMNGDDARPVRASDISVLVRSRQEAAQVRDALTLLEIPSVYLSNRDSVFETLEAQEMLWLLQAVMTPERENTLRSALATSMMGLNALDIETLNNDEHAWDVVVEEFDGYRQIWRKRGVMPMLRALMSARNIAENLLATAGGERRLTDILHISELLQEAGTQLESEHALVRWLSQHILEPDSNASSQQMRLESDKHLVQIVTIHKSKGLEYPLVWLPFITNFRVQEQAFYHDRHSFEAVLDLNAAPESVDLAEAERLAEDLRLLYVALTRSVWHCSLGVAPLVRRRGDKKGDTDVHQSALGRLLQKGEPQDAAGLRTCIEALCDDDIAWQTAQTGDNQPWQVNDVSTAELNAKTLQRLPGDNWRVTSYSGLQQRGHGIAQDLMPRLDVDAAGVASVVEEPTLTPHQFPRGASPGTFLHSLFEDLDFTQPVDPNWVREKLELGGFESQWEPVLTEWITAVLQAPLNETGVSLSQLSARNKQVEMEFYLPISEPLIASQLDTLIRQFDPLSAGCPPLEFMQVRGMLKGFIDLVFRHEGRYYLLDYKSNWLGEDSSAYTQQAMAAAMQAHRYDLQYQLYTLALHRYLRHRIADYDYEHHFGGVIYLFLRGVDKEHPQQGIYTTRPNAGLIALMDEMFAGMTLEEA

[5] = Counterscreen for AddAB inhibitors: absorbance-based bacterial cell-based high throughput dose response assay for inhibitors of bacterial viability. [Related pubchem assays (depositor defined):AID435030, AID449728, AID449731, AID488942, AID488955, AID488956]; assay type: functional
[6] = HeLa cell cytotoxicity, dose response, cytotoxicity control for MgcRacGAP inhibitor project (AID 624300); assay type: functional
[7] = target: T3, Endoribonuclease toxin MazF (Escherichia coli K-12, UniProt P0AE70); assay: MazF toxin RNase activators, dose response, biochemical, fluorescence, single-stranded RNA substrate, uHTS hits (AID 588481); assay type: functional
T3 sequence (P0AE70 whole entry): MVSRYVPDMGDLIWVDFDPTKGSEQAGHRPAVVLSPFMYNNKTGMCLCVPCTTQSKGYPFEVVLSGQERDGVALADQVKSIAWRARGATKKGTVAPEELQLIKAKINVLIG

[8] = target: T3, Endoribonuclease toxin MazF; assay: fluorescent RNA oligo signal without MazF, dose response, counter-screen for MazEF activator project, biochemical, fluorescence, single-stranded RNase substrate (AID 588502); assay type: functional
[9] = NIH-3T3 fibroblast cytotoxicity, dose response, cytotoxicity control, cell-based, fluorescence, Alamar Blue, secondary assay (AID 2327); assay type: functional;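 further: NIH-3T3 mouse fibroblasts cultured with fluconazole at 8 µg/mL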
[10] = inhibitors of firefly luciferase expression or activity, dose response, H4 neuroglioma cells, luminescence (AID 1990); assay type: functional, cell-based
[11] = Luminescence Cell-Based Dose Response HTS to Identify Inhibitors of 5'UTR Stem-Loop Driven Prion Protein mRNA Translation in H4 Neuroglioblastoma Cells. [Related pubchem assays: 1827 (Project Summary), 1813 (Primary HTS)]; assay type: functional
[12] = inhibitors of SNCA 5'UTR-driven reporter translation, confirmation, H4 neuroglioma cells, luminescence (AID 1988); assay type: functional, cell-based
[13] = C. albicans growth with fluconazole, confirmation, fluorescence, retest (AID 2467); assay type: functional, cell-based
[14] = microbe, parasite or virus in culture; assay type: functional; conditions: Mycobacterium tuberculosis
[15] = THP-1 cell cytotoxicity, dose response, cytotoxicity control for non-replicating M. tuberculosis project (AID 489025); assay type: functional
[16] = HepG2 cell cytotoxicity, dose response, cytotoxicity control for non-replicating M. tuberculosis project (AID 489018); assay type: functional; conditions: Mycobacterium tuberculosis
[17] = Vero E6 cell cytotoxicity, dose response, cytotoxicity control for non-replicating M. tuberculosis project, secondary assay (AID 492998); assay type: functional, VeroE6; conditions: Vero C1008
[18] = cells; assay type: functional
[19] = system: INS1; assay: beta cell apoptosis inhibitors, cytokine rescue, dose response, luminescence, retest (AID 449756); assay type: functional, cell-based; conditions: Rattus norvegicus;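 further: cell death triggered by IL-1 beta plus TNF-alpha plus IFN-gamma mixture; protective hits raise ATP signal compared with cytokine alone wells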
[20] = target: T4, DNA repair protein RAD52 homolog (Homo sapiens, UniProt P43351); assay type: functional, biochemical
T4 sequence (P43351 whole entry): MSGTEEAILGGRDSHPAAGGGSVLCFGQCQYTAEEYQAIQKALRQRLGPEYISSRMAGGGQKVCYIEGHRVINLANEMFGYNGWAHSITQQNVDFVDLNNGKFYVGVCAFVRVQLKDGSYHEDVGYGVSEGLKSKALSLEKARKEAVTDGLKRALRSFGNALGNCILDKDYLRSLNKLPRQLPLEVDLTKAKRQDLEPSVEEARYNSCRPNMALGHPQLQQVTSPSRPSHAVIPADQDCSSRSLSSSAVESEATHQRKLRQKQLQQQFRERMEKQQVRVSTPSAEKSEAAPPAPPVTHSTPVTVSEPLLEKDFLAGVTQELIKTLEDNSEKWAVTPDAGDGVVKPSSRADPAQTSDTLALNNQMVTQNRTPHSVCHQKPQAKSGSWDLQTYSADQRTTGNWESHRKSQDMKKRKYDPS

[21] = target: Paired box protein Pax-8 (Homo sapiens, UniProt Q06710); assay: inhibitors of PAX8-driven TPO luciferase reporter, dose response, RMG-I cells, cherry-pick (AID 687027); assay type: functional, cell-based;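 further: luciferase reporter driven by Pax8 target thyroperoxidase promoter measured by SteadyGlo luminescence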
Sequence of Paired box protein Pax-8 (Q06710 whole entry): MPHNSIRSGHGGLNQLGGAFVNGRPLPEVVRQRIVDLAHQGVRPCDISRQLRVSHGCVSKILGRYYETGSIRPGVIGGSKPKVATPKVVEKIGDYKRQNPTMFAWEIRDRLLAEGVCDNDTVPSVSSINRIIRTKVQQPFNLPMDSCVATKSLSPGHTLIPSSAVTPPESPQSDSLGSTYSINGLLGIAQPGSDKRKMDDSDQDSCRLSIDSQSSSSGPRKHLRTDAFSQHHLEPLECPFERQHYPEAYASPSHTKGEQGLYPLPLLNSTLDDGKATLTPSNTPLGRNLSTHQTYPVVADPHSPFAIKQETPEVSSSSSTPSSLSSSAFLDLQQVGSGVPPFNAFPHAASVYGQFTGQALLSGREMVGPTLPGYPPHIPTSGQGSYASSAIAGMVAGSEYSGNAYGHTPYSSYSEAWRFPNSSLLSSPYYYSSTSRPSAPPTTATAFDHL

For `O=C(NC(NC(=S)Nc1ccc(Cl)c(Cl)c1)C(Cl)(Cl)Cl)c1ccco1` (configuration not stated), the EC50 [1] was 4.32 µM (active), the EC50 [2] was 10.9 µM (active) and the EC50 [3] was 10.9 µM (active). The IC50 [4] was > 119 µM (inactive), the IC50 [5] was > 119 µM (inactive) and the CC50 [6] was 57.7 µM (active).
With `O=[N+]([O-])c1ccc2[nH]c(O)c(N=Nc3ccc(F)cc3)c2c1` the EC50 [7] was > 99 µM (inactive) and the EC50 [8] was 20.3 µM (inactive).
For `Cc1cc(C)n(-c2nc(NCCN(C)C)c3c4c(sc3n2)CCCC4)n1`, the EC50 [9] was 8.65 µM (inconclusive), the EC50 [10] was 6.98 µM (active) and the EC50 [11] was 8.38 µM (active). For the same compound, the EC50 [12] was 8.07 µM (active), the EC50 [13] was 11.3 µM (active) and the CC50 [14] was 10.3 µM (active). The CC50 [15] was 12.7 µM (active), the CC50 [16] was 9.27 µM (active) and the CC50 [17] was 5.33 µM (active). For the same compound, the IC50 [18] was 13.8 µM (active), the AC50 [19] was 8.03 µM (active) and the AC50 [20] was 7 µM (active). The AC50 [21] was 22.9 µM (active).
With `COc1cccc(-c2nnc(NC(=O)c3ccc4ncsc4c3)o2)c1` the EC50 [9] was > 150 µM (inconclusive), the EC50 [13] was 1.9 µM (active) and the CC50 [15] was 23.5 µM (active). The CC50 [16] was > 20 µM (active), the CC50 [17] was 13 µM (active) and the IC50 [18] was 11.7 µM (active).
